Measured values from patent publication US20010056086A1, “USE OF ANTI-OESTROGENS AS MALE CONTRACEPTIVES” (priority 1995, published 2001).

System: normal adult male rats
Assay: 28-day treatment of normal adult male rats: organ weight and histology of the male reproductive tract, epididymal sperm properties
Assay type: in vivo
Settings: 2.5 mg/kg subcutaneously, 28 days
Procedure: The above-described properties of antiestrogens were obtained in tests that were performed with the ICI-antiestrogen 7α-[9-(4,4,5,5,5-pentafluoropentylsulfinyl)-nonyl]-estra-1,3,5(10)-triene-3,17β-diol on normal adult male rats.
The test design and the results are described in the list below:
Observations regarding the organ weight of the male reproductive tract and sperm properties: […]

histology of the organs studied (seminal vesicles, prostate, testicles, epididymis) (vs vehicle control): No effects
weight of the organs studied (seminal vesicles, prostate, testicles, epididymis) (vs vehicle control): No effects
Structure (SMILES): C[C@]12CC[C@@H]3c4ccc(O)cc4C[C@@H](CCCCCCCCC[S+]([O-])CCCC(F)(F)C(F)(F)F)[C@H]3[C@@H]1CC[C@@H]2O (stereo partly drawn) [7α-[9-(4,4,5,5,5-pentafluoropentylsulfinyl)-nonyl]-estra-1,3,5(10)-triene-3,17β-diol]
acrosomal state of sperm (epididymal sperm): Induction of an early incipient acrosomal reaction
sperm motility (epididymal sperm): Inhibition of motility
